Measured values: patent US12150927B2, “Use of cannabidiolic acid in the treatment of autism spectrum disorder and associated disorders” (GW Research Limited, priority 2016, dated 2024)

Test system: Ube3am-/p+ (AS) mice
Experiment: Clasping test, mouse model of Angelman syndrome
Format: in vivo
Settings: chronic treatment (30 days) CBDA 20 mg/kg i.p., 10 weeks of age, vs AS vehicle, FIG. 12
Method: Heterozygous mice with maternal deficiency of Ube3A (Ube3am−/p+) and wild type (Ube3am+/p+) were purchased from The Jackson Laboratory (Jackson code: B6.129S7-Ube3a tm1Alb/J) and maintained in a C57BL/6 background.
Drugs were dissolved in 1:1:18 ethanol:cremophor:0.9% saline, for intraperitoneal (i.p.) administration. […] CBDA was administered at 20 mg/kg.
Clasping: The clasping test assesses ataxia in mice. Mice were suspended by the base of the tail and their behaviours were recorded for 30 seconds. The time for which the mice clasped their hind limbs was recorded. The time was then scored as follows: 4, 15-30 s, 3, 10-15 s, 2, 5-10 s, 1, 0-5 s and 0, 0 s

Question: `C=C(C)[C@@H]1CCC(C)=C[C@H]1c1c(O)cc(CCCCC)c(C(=O)O)c1O` [CBDA, Cannabidiolic acid] was tested. Which clasping duration did it give?
Answer: The clasping duration was “significantly reduced clasping duration”.
